# In publication PMC9882606, “Rationally designed inhibitors of the Musashi protein-RNA interaction by hotspot mimicry” (Research Square, 2023):
# Legend:
# [1] = target: T1, MSI1 RRM1 (Homo sapiens, UniProt O43347); assay: Fluorescence polarization (FP) competition assay with fluorescein-labeled RNA; assay type: binding; conditions: MSI1 RRM1
# T1 sequence (O43347 20-110 limits assumed): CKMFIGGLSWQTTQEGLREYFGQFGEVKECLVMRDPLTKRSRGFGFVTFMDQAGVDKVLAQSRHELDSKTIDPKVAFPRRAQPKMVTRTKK
# Description: Figure 1: The hotspot mimicry approach. […] (A) The structure of the MSI1 / RNA complex. The RNA (sticks) wraps around the protein (spheres). Two adjacent bases, A106 and G107 (magenta), are buried in a shallow pocket on the protein surface. (B) An interaction map is generated from the RNA in the complex, by collecting deeply buried bases (magenta) and atoms involved in intermolecular hydrogen bonds (acceptors shown in yellow, donors in green). […] Positive values indicate diminished binding when a given base is replaced with an abasic site, showing that A106 and G107 contribute more than the other nearby bases to the binding affinity of this interaction. (E) The hotspot pharmacophore serves as a template for ligand-based screening, searching for compounds that would mimic the three-dimensional features of the pharmacophore. The screen led to the identification of compound R12, which mimics the geometry of the rings and provides three of the four desired hydrogen bonding groups. (F) R12 competes with fluorescein-labeled RNA for MSI1 binding, as observed through a fluorescence polarization assay. […] (G) Superposition of the hotspot pharmacophore back onto the protein structure illustrates the interactions that should be captured by an ideal ligand: stacking against three aromatic sidechains, and four intermolecular hydrogen bonds.
# We applied our “hotspot mimicry” approach to the structure of Musashi-1 RRM1 bound to cognate RNA [54], and found a single hotspot pharmacophore derived from an adjacent pair of buried bases, Adenine106 and Guanine107 (Figure 1a). […] This pharmacophore captures both the aromatic stacking and the hydrogen bonding of the RNA hotspot through its inclusion of ring moieties and donor/acceptor positions, respectively (Figure 1c). To test whether these two particular bases indeed serve as a hotspot of the MSI1 RRM1 / RNA interaction, we used a fluorescence polarization (FP) competition assay (see Supporting Methods) to measure the binding affinity of RNA variants that maintained the backbone but lacked individual bases. […] In contrast, introduction of an abasic site at other nearby positions affected binding much less. Confirmation that A106 and G107 serve as hotspot bases of this interaction thus provided experimental evidence supporting the pharmacophore selection from our computational approach.
# [2] = target: T1, MSI1 RRM1; assay: Differential Scanning Fluorimetry (DSF); assay type: binding; conditions: increasing compound dose
# Description: Out of concern that R12–7’s activity may be associated with compound aggregation, we elected to continue with optimization of R12–8 (Figure 2b).
# To further characterize R12–8–44–3, we applied differential scanning fluorimetry (DSF) as an orthogonal secondary assay. […] While this could be a sign of apparent inhibition occurring through aggregation, there are also legitimate inhibitors that reduce their target protein’s melting temperature. An alternate explanation could simply be that MSI1’s folding landscape is not simply two-state, and that a partially-folded intermediate stabilized by R12–8–44–3 affects the unfolding transition.
# [3] = tested on: PC9 cells; assay: Clonogenic assay, PC9; assay type: cell-based, human; conditions: PC9, 10 μM, 7 days
# Experimental: Figure 7: Cellular characterization of MSI2 inhibition by R12–8–44–3. (A) Quantification of mRNA immunoprecipitation (RIP) results. Cells were treated with 10 μM of the indicated compounds for 8 hours. After immunoprecipitation with anti-MSI2, mRNA targets were quantified. The amount of each target mRNA in the pulldown was calculated relative to the input, and results from all targets were normalized to PTP4A1. Treating cells with R12–8–44–3 disrupted the interaction with all four cognate mRNAs (PTP4A, SMAD3, EGFR, and MSI2). Data are presented as the average ± S.E.M. from at least 3 independent replicates. […] Cells were treated with indicated compounds at two concentrations (5 μM and 20 μM) for 48 hours, then protein levels of relevant MSI2 targets were determined (EGFR, SMAD3, and MSI2). One representative image is shown; quantification is presented as the average ± S.E.M. from at least 3 independent replicates, normalized first to beta-actin and then to DMSO-treated cells. (C) Cell viability dose-response quantified by CellTiter-Blue after 3 days (left) and cell proliferation with 10μM of compounds quantified by clonogenic assay after 7 days (right). […] (D) Cell viability quantified by clonogenic assay of PC9 cell line after 7-day treatment with 2 nM osimertinib (osi alone), osimertinib with 10 μM R12–8–44–3, or osimertinib with 10 μM R12-neg. […]
smiles,measurement,setting,value
Cc1cc(C(=O)OCc2nc(N)c3c(C)c(C)sc3n2)c(N)cc1F [R12–8–44–3],improvement in potency over parent compound,[1]; FP assay,2 fold
same,IC50,[1]; FP competition,9.7 µM
same,change of the protein's melting temperature,[2],monotonically decreased MSI1’s melting temperature
same,cell proliferation (clonogenic assay),[3],no effect on cell growth/survival
